# Results: patent US10568320B2, “Biologically-based control methods for insect pests” (The United States of America, as represented by the …, priority 2017, dated 2020)
# Entries after “also recorded” stand apart in the source; their conditions may differ.
# Legend:
# [1] = test system: female sexuals (alates); test: Worker attraction to poison sac extracts of dealates (queen pheromone bioassay); format: in vivo, Solenopsis invicta; settings: extracts from dealates of fed sub-colonies
# [2] = test system: monogyne queenright colonies; test: Feeding of monogyne queenright colonies: worker and queen mortality; format: in vivo, Solenopsis invicta; settings: 1% in 10% sucrose, 27 d; for colonies considered dead: five colonies
# From the text: FIGS. 24A and 24B show results for the sucrose (10%) control and two treatments, tyramine (1%) and N-methyl-tyramine (1%), both dissolved in 10% sucrose. The control and test colonies were monogyne queenright colonies, containing a single queen, brood and workers started in the laboratory from newly mated queens collected in the field. The mean number of workers per colony was 8,400±400. […] Previous experiments used queenless sub-colonies, rather than the queenright colonies in these experiments. The mortality effect on colony queens was unexpected, since worker fire ants are completely sterile and cannot reproduce even if the queen dies. Therefore, when the reproductive queen dies no more brood is produced and the colony is no longer functional—it is considered dead. […] Therefore, 80% of the treated colonies were considered dead.
# [3] = Solubility in aqueous solution; format: physicochemical; settings: for solubility maximum: solution
# [4] = test system: fire ant workers; test: Example 14 feeding experiments: fire ant worker mortality
# [5] = test system: mature female alates (MFAs); test: Injection into MFA abdomen: ovariole development and egg-laying; format: in vivo, Solenopsis invicta; settings: 100 nL of a 1.0% saline solution (1 microgram) injected
# From the text: Two measures of ovariole development were used. […] Measurement of ovariole area in the same samples gave a quantitative measure of ovariole development. […] Within the context of a colony this effect would be in direct conflict with the colony queen. Eggs laid would not be fertile and therefore develop into males. Queen pheromone is also produced by […], which would act to reduce the fecundity of the colony queen. For example, in polygyne colonies the higher the number of queens the lower is the mean egg-laying rate/queen due to the presence of excess queen pheromone (see Vander Meer, R. K., et al. (1992), A comparison of queen oviposition rates from monogyne and polygyne fire ant, Solenopsis invicta, colonies.
# [6] = test system: MFA mid- and hind-gut
# [7] = test system: mature female alates (MFAs); test: Injection into MFA abdomen: wing loss (dealation); format: in vivo, Solenopsis invicta; settings: 100 nL of a 1.0% saline solution injected into the MFA abdomen
# From the text: While the MFAs are in their mother colony, the queen releases primer pheromones that inhibit wing loss (sometimes referred to herein as “dealation”), development of ovaries, wing muscle histolysis, and pheromone production. This release prevents reproductive/resource competition between the MFAs and the mother queen. If MFAs are removed from the colony, they become disinhibited and eventually (e.g., within days) lose their wings and start the physiological processes (e.g., wing loss and ovariole development). MFA also become disinhibited when they leave the colony on a mating flight; however, in this case the now NMQs lose their wings within minutes of landing and initiate the above mentioned physiological/biochemical changes (e.g., wing loss and ovariole development). We know from previous experiments that mating is the trigger, not mating flight initiation or the act of flying (Burns, S. N., et al. (2002) Identification and action of juvenile hormone III from sexually mature alate females of the red imported fire ant, Solenopsis invicta. Journal of Insect Physiology 48: 357-365; Burns, S. N., et al. (2005), The effect of age and social environment on dealation in Solenopsis invicta (Hymenoptera: Formicidae) female […]. […] Burns, S. N., et al. […]
# [8] = test system: fire ant workers; test: Droplet feeding of worker groups: mortality over 24 h and concentration series; format: in vivo; settings: for worker mortality compared with sucrose control (Kaplan-Meier, Log-rank): 24 h
# Experimental: To determine how quickly the tyramine and acetyl tyramide act, 60 workers were allowed to feed on tyramine (FIG. 8A) or acetyl tyramide (FIG. 8B) dissolved at about 1% in 10% sucrose solution. The control and treatments were presented to the worker ants as droplets on phase separation filter paper. Consumption of the droplets was readily observed. Mortality was monitored for each of the first 10 hours and then at 24 hours. […] Tyramine and acetyl tyramide had >50% and >40% mortality, respectively within the 24 h time period of the experiment. […] This distribution is a cornerstone of pest ant baits. To test this hypothesis, a similar experiment was conducted. Workers were allowed to feed on the treatment and control solutions and were then transferred to another container with unfed nestmates. In all cases, it was observed that the treatment fed workers regurgitated the treatment and sucrose solutions to their unfed nestmates through the classic mechanism of trophallaxis (data not shown). Thus, normal worker behavior necessary for bait development was not affected by the treatments under these experimental conditions.
# One criteria for an effective pest ant Active Ingredient (AI) is maintenance of activity over 1-3 orders of magnitude, because as the bait is distributed from one ant to another the material is diluted. The AI must maintain activity until all individuals in the colony (e.g., workers, brood and sexuals including the queen) have received the AI. […] Journal of Economic Entomology 99(5): 1739-1748). The 0.01% had >24 h delay in mortality.
# [9] = test system: 4th instar sexual larvae; test: Direct (hand) feeding of 4th instar sexual larvae; format: in vivo, Solenopsis invicta; settings: for mortality / sickness of 4th instar sexual larvae: fed once, 80 nL max of about 1% w/v in 10% sucrose, N=10
# From the text: It was concluded that the 4th instar larvae are refractory to the mortality effects observed when workers are fed tyramine.
# [10] = test system: female alates and workers; test: Feeding of queenless colony sub-units with immature female alates; format: in vivo, Solenopsis invicta
# From the text: In this example, whether feeding tyramine and/or the tyramides to colony sub-units that contained female […] would result in inappropriate wing loss, as well as ovariole development. Wing muscle histolysis, and queen pheromone production normally accompanies wing loss (see Vargo, E. L. (1998), Primer pheromones in ants, pp. 293-313. In […]. Breed, […] and M. L. Winston (eds.), Pheromone communication in social insects ants, wasps, bees, and termites. […], Boulder, Colo.). […] The data supports and confirms that workers are feeding the treatments to the female […], which in turn stimulates wing loss in the […]. FIG. 11B is from the same experiment confirming the worker mortality effects of the tyramine and tyramide treatments.
# [11] = test system: fire ant workers; test: Five biogenic amines fed to fire ant workers as droplets; format: in vivo, Solenopsis invicta; settings: 1% in 10% sucrose, 48 h
# Experimental: Tyramine is one of five biogenic amines that may be found in insects (e.g., dopamine, histamine, octopamine, serotonin, and tyramine). The experiment in this example tests whether fire ant worker mortality effects observed with tyramine may be a general result of the ants ingesting greater than normal amounts of a biogenic amine. To test this hypothesis groups of 20 fire ant worker ants were starved for 24 hours and fed a 1% (w/v) biogenic amine in 10% sucrose solution. Treatments and sucrose were presented to the worker ants as a 25 microliter droplet on a 2 cm^2 piece of silicon treated filter paper. Each treatment and control were performed in triplicate for a total of 60 worker ants per treatment and control. Mortality was monitored for the first 7-8 h after introduction of the sucrose solutions, then at 24 h. The feeding/monitoring sequence was repeated for another 24 h period for a total of 48 h. The results are shown in FIG. 12A-12B in the form of Kaplan-Meier mortality curves.
# [12] = test system: Tawny crazy ant (Nylanderia fulva) workers; test: Species specificity droplet feeding: tawny crazy ant workers; format: in vivo; settings: 1% in 10% sucrose, 24 h
# From the text: (§1) To evaluate the effect of tyramine on another pest ant species triplicate groups of 20 Tawny crazy ant (Nylanderia fulva) workers and triplicate groups of 20 fire ant workers were setup. Corresponding controls for both pest ant species were workers fed 10% sucrose solution. The treatment was 1% tyramine in 10% sucrose (weight-to-volume). The control and treatments were presented to the worker ants as droplets on phase separation filter paper. Consumption of the droplets was readily observed. Mortality was monitored for each of the first 10 hours and then at 24 hours. The results are shown as mean±standard error of accumulated mortality for controls and treatments at 24 h in FIG. 13. […] These unexpected results illustrate that the toxicity effects of tyramine on fire ants are not automatically extended to other ant species.
# [13] = test system: fire ant workers; test: Species specificity droplet feeding: fire ant workers; format: in vivo, Solenopsis invicta; settings: 1% in 10% sucrose, 24 h
# From the text: as §1
Compound,"worker attraction to poison sac extracts versus N,N-dimethyl tyramine treatment and controls [1]",% worker mortality at the end of the experiment versus control [2],fate of colony queens (five replicates) [2],queen mortality at the end of the experiment versus control [2],colonies considered dead [2] [%],solubility maximum [3] [%],fire ant worker mortality versus 10% sucrose control ([4]; 0.01% in 10% sucrose),fire ant worker mortality versus 10% sucrose control ([4]; 0.1% in 10% sucrose),fire ant worker mortality versus 10% sucrose control ([4]; 1.0% in 10% sucrose),"ovariole development, ovariole area, compared to controls [5]","ovariole development, ovary rank 1-4, compared to the control [5]",degradation of the tyramide [6],dealation (wing loss) compared to the control [7],"worker mortality compared with sucrose control (Kaplan-Meier, Log-rank) ([8]; about 1% in 10% sucrose)",mortality / sickness of 4th instar sexual larvae [9],other results
"CNCCc1ccc(O)cc1 [N-methyl-tyramine (free base), N-methyl-tyramine]","significantly different from those from the N,N-dimethyl tyramine treatment and the sucrose and hexane controls",significantly different from the corresponding controls,all queen replicates (5) died,significantly different from the corresponding controls,100,1,significantly different from the 10% sucrose control,significantly different from the 10% sucrose control,significantly different from the 10% sucrose control,–,–,–,–,–,–,worker attraction to poison sac extracts compared among active treatments [1]: significantly greater worker attraction than poison sac extracts from tyramine treatments; mortality at the two lower concentrations (0.1 and 0.01%) versus the 1.0% concentration ([4]; in 10% sucrose): significantly higher mortality than the 1.0% concentration
CCCCCC(=O)NCCc1ccc(O)cc1 [hexanoyl tyramide],–,–,–,–,–,–,–,–,–,not hexanoyl tyramide caused significant ovariole development,significant ovariole development,No degradation of the tyramide was observed,–,–,–,–
NCCc1ccc(O)cc1 [tyramine],"significantly different from those from the N,N-dimethyl tyramine treatment and the sucrose and hexane controls",significantly different from the corresponding controls,one colony queen survived out of five,significantly different from the corresponding controls,80,1,significantly different from the 10% sucrose control,significantly different from the 10% sucrose control,significantly different from the 10% sucrose control,caused significant ovariole development,significant ovariole development,–,significantly faster and inappropriate dealation,significantly greater worker mortality than the sucrose control,All sexual larvae fed tyramine died by day 5,"delay in mortality ([8]; 0.01% concentration): > 24 h; mortality delay ([8]; 0.1% concentration): ≥ 5 h; mortality delay ([8]; 1.0% concentration): ≥ 5 h; worker mortality at a dilution factor of 100 ([8]; about 0.01% (weight-to-volume)): significant worker mortality; worker mortality within the 24 h time period ([8]; in vivo): > 50%; amount fed at which fire ant sexual larvae die ([9]; in vivo): 0.8 micrograms; wing loss of female alates ([10]; fed in 10% sucrose continuously for 7 days, via workers): rapid wing loss; ovariole development of female alates fed by workers ([10]; sub-colonies): commencement of ovariole development; worker mortality, tyramine HCl versus tyramine free base [11]: not significantly different; accumulated worker mortality compared to sucrose control [12]: did not have significant mortality compared to its sucrose control; also recorded: no effect on crazy ant workers; accumulated worker mortality compared to sucrose control [13]: significant mortality compared to its sucrose control; water solubility [3]: water soluble; concentration of solution fed to workers that led to mortality after 7 days ([4]; estimated from feeding studies): 0.01 micrograms per microliter"
acetyl tyramide,–,–,–,–,–,–,–,–,–,caused significant ovariole development,significant ovariole development,No degradation of the tyramide was observed,significantly faster and inappropriate dealation,significantly greater worker mortality than the sucrose control,none of the acetyl tyramide treatments died or appeared sick,"worker mortality within the 24 h time period ([8]; about 1% in 10% sucrose, droplets, 60 workers): > 40%"
